Experimental data: US20250034135A1, “ANTI-APOPTOTIC PROTEIN BCL-2 INHIBITOR, PHARMACEUTICAL COMPOSITION AND USES THEREOF” (HANGZHOU HEALZEN THERAPEUTICS CO., LTD., priority 2021, published 2025)
Like-named read-outs stand apart in the source and are kept apart here.

What was measured:
[1] = biological target: BCL2 (Homo sapiens (Human), UniProt P10415); experiment: Molecular level activity test of anti-apoptotic protein BCL2 (HTRF, binding to Bim peptide)
How it was run: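 HTRF readout; His-BCL2 + biotin-BIM peptide + cpd (2% DMSO in compound addition), 1 h; then anti-His + SA-XL665 detection reagents, 4 h RT.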

[2] = biological target: BCL2 (G101V) (Homo sapiens (Human), UniProt P10415, G101V); experiment: Molecular level activity test of anti-apoptotic protein BCL2 (G101V) (HTRF, binding to Bim peptide); settings: inhibition of BCL2 (G101V) binding to Bim peptide, read-out: BCL-2 (G101V)
Method: (§1) The detection of the binding ability between anti-apoptotic protein BCL2 (G101V) and pro-apoptotic protein Bim was performed using Homogeneous Time-Resolved Fluorescence technology. The reaction of this method occurred in a white shallow 384-well plate, with a total reaction volume of 10 μL. Specifically, it included 2 μL of the compound to be tested (2% DMSO), 4 μL His-tagged recombinant protein, and 4 μL Biotin-tagged BIM protein peptide. After 1 hour of reaction, 5 L of each Anti-His and streptavidin-tagged XL665 antibody diluents diluted with a detection buffer were added. After incubating at room temperature for 4 hours, the values were read using the Envision multifunctional microplate reader to detect the effect of the compound to be tested on the binding ability of BCL2 (G101V) to BIM protein peptides.

[3] = biological target: BCL2 (D103Y) (Homo sapiens (Human), UniProt P10415, D103Y); experiment: Molecular level activity test of BCL2 (D103Y) (HTRF, binding to Bim peptide); settings: read-out: BCL-2 (D103Y) (nM) (inhibitory activity, IC50)
Method: as §1, with “BCL2 (D103Y)” for “BCL2 (G101V)”, “5 μL” for “5 L”

[4] = test system: RS4; 11 cells; experiment: Tumor proliferation inhibitory activity test (MTS) on RS4; 11; assay type: cell-based; settings: Homo sapiens, RS4-11, 72 h, 3 days incubation
Method: The cell proliferation inhibitory ability of the compounds on RS4; 11 was tested using the MTS method. MTS is a tetrazolium blue salt compound that can be reduced by various dehydrogenases in live cell mitochondria to their respective colored methylzan products. Its color depth is highly correlated with the number of live cells in certain sensitive cell lines within a certain range. RS4; 11, RS4; 11 (BCL-2-G101V) and MOLT-4 tumor cells were cultivated separately and collected, 180 μL of cell suspension was added to each well in a 96-well cell plate, 20 μL of DMSO with a final concentration of 0.2% was added to the control cell wells, 20 μL of gradient diluted compounds were added to cell wells, and the treated cells were incubated in a 5% CO2 incubator at 37° C. for 3 days. After the incubation was completed, the reaction solution was prepared according to the MTS reagent kit, 20 μL was added per well and incubated in a 5% CO2 incubator at 37° C. for 3-4 hours. The absorbance value at 490 nm was read using an enzyme-linked immunosorbent assay (ELISA) plate, and the absorbance value at 690 nm was used as the background value, with OD490 nm-OD690 nm as the final raw data. The formula for calculating the inhibition ratio of compounds was as follows: inhibition ratio=(ODDMSO−ODCompound)/(ODDMSO−ODblank)×100%.

[5] = biological target: BCL-XL (Homo sapiens (Human), UniProt Q07817); experiment: BCL-XL enzyme molecular level activity test (HTRF, binding to BIM peptide); settings: binding of BCL-XL to BIM peptide, read-out: BCL-XL inhibitory activity (IC50)
Sequence of BCL-XL (Q07817 whole entry): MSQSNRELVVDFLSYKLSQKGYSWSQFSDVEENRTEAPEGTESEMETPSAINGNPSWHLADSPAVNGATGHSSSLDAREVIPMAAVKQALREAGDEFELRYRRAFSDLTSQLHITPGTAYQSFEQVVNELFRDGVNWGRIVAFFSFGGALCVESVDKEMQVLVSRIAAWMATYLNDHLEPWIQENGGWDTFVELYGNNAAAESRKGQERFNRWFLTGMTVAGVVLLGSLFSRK
Method: In a white shallow 384-well plate, a total reaction volume was 10 μL. Specifically, it included 2 μL of the compound to be tested (2% DMSO), […] His-tagged recombinant protein, and 4 μL Biotin-tagged BIM protein peptide. After 1 hour of reaction, 5 μL of each Anti-His and streptavidin-tagged XL665 antibody diluents diluted with a detection buffer were added. After incubating at room temperature for 4 hours, the values were read using the Envision multifunctional microplate reader to detect the effect of the compound to be tested on the binding ability of BCL-XL to BIM protein peptides. The Envision parameter settings were exciting light at 320 nm, and emitting light at 615 nm and 665 nm. The binding ability of anti-apoptotic proteins to Bim protein peptides was indirectly reflected by the signal ratio of 665 nm and 615 nm. In the reaction, background wells without BCL2 and active wells for full binding of recombinant proteins without compounds and Bim protein peptides were set up.

[6] = HTRF, binding of BCL2 to Bim peptide, read-out: BCL2 nM (inhibitory activity, IC50)

Compound	IC50 [1, 6]	IC50 [2]	IC50 [3]	IC50 [4]	IC50 ([5]; values in nM)	IC50 [1]	IC50 ([5]; values given in μM)
COc1ccc(CN2CCN(C3CC4(CCN(c5cc(Oc6cnc7[nH]cc(F)c7c6)c(C(=O)NS(=O)(=O)c6ccc(NCC7CCOCC7)c([N+](=O)[O-])c6)cc5F)CC4)C3)[C@H](c3ccccc3C(C)C)C2)cc1 [compound 240, (R)-5-fluoro-2-((3-fluoro-1H-pyrrolo[2,3-b]pyrid-5-yl)oxy)-4-(2-(2-(2-isopropylphenyl)-4-(4-methoxybenzyl)piperazin-1-yl)-7-azaspiro[3.5]non-7-yl)-N-((3-nitro-4-(((tetrahydro-2H-pyran-4-yl)methyl)amino)phenyl)sulfonyl)benzamide]	< 10 nM	< 10 nM	< 10 nM	0.5 to 1 nM	> 500 nM	–	–
COc1ccc(CN2CCN(C3CC4(CCN(c5cc(Oc6cnc7[nH]ccc7c6)c(C(=O)NS(=O)(=O)c6ccc(NCC7(F)CCOCC7)c([N+](=O)[O-])c6)cc5F)CC4)C3)[C@H](c3ccccc3C(C)C)C2)cc1CN(C)C [compound 250, (R)-2-((1H-pyrrolo[2,3-b]pyrid-5-yl)oxy)-4-(2-(4-(3-((dimethylamino)methyl)-4-methoxybenzyl)-2-(2-isopropylphenyl)piperazin-1-yl)-7-azaspiro[3.5]non-7-yl)-5-fluoro-N-((4-(((4-fluorotetrahydro-2H-pyran-4-yl)methyl)amino)-3-nitrophenyl)sulfonyl)benzamide]	< 10 nM	< 10 nM	< 10 nM	0.5 to 1 nM	> 500 nM	–	–
COc1ccc(CN2CCN(C3CC4(CCN(c5cc(Oc6cnc7[nH]cc(F)c7c6)c(C(=O)NS(=O)(=O)c6ccc(NCC7(F)CCOCC7)c([N+](=O)[O-])c6)cc5F)CC4)C3)[C@H](c3ccccc3C(C)C)C2)cc1OC [compound 253, (R)-4-(2-(4-(3,4-dimethoxybenzyl)-2-(2-isopropylphenyl)piperazin-1-yl)-7-azaspiro[3.5]non-7-yl)-5-fluoro-2-((3-fluoro-1H-pyrrolo[2,3-b]pyrid-5-yl)oxy)-N-((4-(((4-fluorotetrahydro-2H-pyran-4-yl)methyl)amino)-3-nitrophenyl)sulfonyl)benzamide]	–	< 10 nM	< 10 nM	0.5 to 1 nM	> 500 nM	< 10 nM	–
CC(C)c1ccccc1[C@@H]1CCCN1C1CC2(CCN(c3cc(Oc4cnc5[nH]ccc5c4)c(C(=O)NS(=O)(=O)c4cc([N+](=O)[O-])c(NCC5(F)CCN(C6COC6)CC5)c5[nH]cnc45)cn3)CC2)C1 [compound 019, (S)-4-((1H-pyrrolo[2,3-b]pyrid-5-yl)oxy)-N-((7-(((4-fluoro-1-(oxocyclobut-3-yl)piperid-4-yl)methyl)amino)-6-nitro-1H-benzo[d]imidazol-4-yl)sulfonyl)-6-(2-(2-(2-isopropylphenyl)pyrrolidin-1-yl)-7-azaspiro[3.5]non-7-yl) nicotinamide]	< 10 nM	< 10 nM	< 10 nM	0.5 to 1 nM	–	–	> 1000 nM
COc1ccc(CN2CCN(C3CC4(CCN(c5ccc(C(=O)NS(=O)(=O)c6cc([N+](=O)[O-])c(NCC7CCOCC7)c7[nH]cnc67)c(Oc6cnc7[nH]ccc7c6)c5)CC4)C3)[C@H](c3ccccc3C(C)C)C2)cc1 [compound 260]	< 10 nM	< 10 nM	< 10 nM	< 0.5 nM	> 500 nM	–	–
COc1ccc(CN2CCN(C3CC4(CCN(c5cc(Oc6cnc7[nH]ccc7c6)c(C(=O)NS(=O)(=O)c6cc([N+](=O)[O-])c(NCC7CCOCC7)c7c6OCCO7)cc5F)CC4)C3)[C@H](c3ccccc3C(C)C)C2)cc1 [compound 265, (R)-2-((1H-pyrrolo[2,3-b]pyrid-5-yl)oxy)-5-fluoro-4-(2-(2-(2-isopropylphenyl)-4-(4-methoxybenzyl)piperazin-1-yl)-7-azaspiro[3.5]non-7-yl)-N-((7-nitro-8-(((tetrahydro-2H-pyran-4-yl)methyl)amino)-2,3-dihydrobenzo[b][1,4]dioxin-5-yl)sulfonyl)benzamide]	< 10 nM	< 10 nM	< 10 nM	0.5 to 1 nM	–	–	> 20000 nM

Second part, the compound after the results:

IC50 [1, 6]	IC50 [2]	IC50 [3]	IC50 [4]	IC50 ([5]; values in nM)	IC50 [1]	IC50 ([5]; values given in μM)	Compound
< 10 nM	< 10 nM	< 10 nM	0.5 to 1 nM	> 500 nM	–	–	COc1ccc(CN2CCN(C3CC4(CCN(c5cc(Oc6cnc7[nH]ccc7c6)c(C(=O)NS(=O)(=O)c6ccc(NC[C@H]7CC[C@](C)(O)CC7)c([N+](=O)[O-])c6)cc5F)CC4)C3)[C@H](c3ccccc3C(C)C)C2)cn1 [compound 236, 2-((1H-pyrrolo[2,3-b]pyrid-5-yl)oxy)-5-fluoro-N-((4-((((1r, 4r)-4-hydroxy-4-methylcyclohexyl)methyl)amino)-3-nitrophenyl)sulfonyl)-4-(2-((R)-2-(2-isopropylphenyl)-4-((6-methoxypyrid-3-yl)methyl)piperazin-1-yl)-7-azaspiro[3.5]non-7-yl)benzamide]
< 10 nM	< 10 nM	< 10 nM	0.5 to 1 nM	> 500 nM	–	–	COc1ccc(CN2CCN(C3CC4(CCN(c5cc(Oc6cnc7[nH]cc(F)c7c6)c(C(=O)NS(=O)(=O)c6ccc(NCC7(F)CCOCC7)c([N+](=O)[O-])c6)cc5F)CC4)C3)[C@H](c3ccccc3C(C)C)C2)cn1 [compound 254, (R)-5-fluoro-2-((3-fluoro-1H-pyrrolo[2,3-b]pyrid-5-yl)oxy)-N-((4-(((4-fluorotetrahydro-2H-pyran-4-yl)methyl)amino)-3-nitrophenyl)sulfonyl)-4-(2-(2-(2-isopropylphenyl)-4-((6-methoxypyrid-3-yl)methyl)piperazin-1-yl)-7-azaspiro[3.5]non-7-yl)benzamide]
< 10 nM	< 10 nM	< 10 nM	0.5 to 1 nM	–	–	–	COc1ccc(CN2CCN(C3CC4(CCN(c5cc(Oc6cnc7[nH]cc(F)c7c6)c(C(=O)NS(=O)(=O)c6ccc(NC[C@H]7CC[C@](C)(O)CC7)c([N+](=O)[O-])c6)cc5F)CC4)C3)[C@H](c3ccccc3C(C)C)C2)cc1 [compound 235, 5-fluoro-2-((3-fluoro-1H-pyrrolo[2,3-b]pyrid-5-yl)oxy)-N-((4-((((1r, 4r)-4-hydroxy-4-methylcyclohexyl)methyl)amino)-3-nitrophenyl)sulfonyl)-4-(2-((R)-2-(2-isopropylphenyl)-4-(4-methoxybenzyl)piperazin-1-yl)-7-azaspiro[3.5]non-7-yl)benzamide]
